“And” between values parts separate entries of the source, which are not always exact repeats. Identical values can stand only once. Like-named read-outs stand apart in the source and are kept apart here.
Columns and labels:
[1] = Fluorescence of compounds; type: physicochemical
Excerpt: The determination of which compounds of the present invention fluoresce can be done in accordance with methods well-known to those of ordinary skill in the art. Such fluorescence can be used to assay for antiviral activity of newly discovered compounds. For example, a fluorescent compound of the present invention can be used as a standard in an antiviral activity assay. The fluorescence of the compound can be measured in the absence and presence of a viral enzyme, such as a retroviral enzyme, in particular a retroviral protease, e.g., an HIV protease, in vitro. A test compound can then be added to the test system comprising the fluorescent compound and the enzyme. The decreased fluorescence of the fluorescent compound of the present invention in the absence and presence of the test compound can be measured and quantitated as a measure of the antiviral activity of the test compound.

[2] = target: T1, HIV-1 protease (wild-type, WT) (Human immunodeficiency virus type 1 group M subtype B, UniProt P04585); experiment: Inhibition of purified wild-type HIV-1 protease (fluorogenic substrate cleavage), Ki and % inhibition; type: biochemical; settings: for Ki: read-out: Ki
T1 construct: purified HIV-1 protease (wild-type, WT)
Procedure: The inhibition constants (Ki) for the compounds of the above examples were determined using purified HIV-1 protease (wild-type, WT) (Tables I, II, IV and V) and R8Q and V82I mutant HIV-1 proteases (Table III). Ki is an inhibition constant of a given compound as derived by enzyme kinetics. A low Ki represents a high affinity of the compound for the enzyme, i.e., tight binding or low dissociation. Inhibition of the cleavage was assayed using a fluorogenic substrate available from Molecular Probes, Inc., Eugene, Oreg., and described in Kageyama et al., Antimicrob. Agents. Chemother., 37, 272 (1993), and a fluorogenic substrate available from Bachem California, Torrance, Calif., and described in Kageyama et al. (1993), supra. The inhibitory potencies of these compounds are set forth in Tables I-V. Percent inhibition is the percentage inhibition of an enzyme's activity by a given compound at a given concentration.

HIV-1 = experiment: Anti-retroviral activity in CEM cells chronically infected with HIV-1 (soluble formazan assay); type: cell-based; settings: Human immunodeficiency virus 1, CCRF-CEM, 50% inhibition of viral activity
Procedure: The concentration of compound that inhibits 50% of viral activity (EC50 ; determined as described in Weislow et al. (1989), supra) and the inhibition constant (Ki, as defined in Example 7) for the compound were determined.

p24 synthesis = experiment: Suppression of p24 synthesis; type: cell-based, HIV-1; settings: Human immunodeficiency virus 1; read-out: concentrations suppressing p24 synthesis
CEM cells = experiment: Toxicity of DD-5; type: cell-based; settings: even at doses as high as 10^-4 M
viral activity = settings: cited from earlier work

Compound | fluorescence [1] | Ki ([2]; Table IV) [nM] | Ki [2] | EC50 (HIV-1) [nM] | also measured
O=C(Nc1ccccc1C(=O)N[C@@H](Cc1ccccc1)[C@H](O)[C@H](O)[C@H](Cc1ccccc1)NC(=O)c1ccccc1NC(=O)OCc1ccccn1)OCc1ccccn1 [Compound 34] | good fluorescence | 0.06 | 0.061 nM and 0.064 nM | 3.2 | 
O=C(Nc1ccccc1C(=O)N[C@@H](Cc1ccccc1)C[C@H](O)[C@H](Cc1ccccc1)NC(=O)c1ccccc1NC(=O)OCc1ccccn1)OCc1ccccn1 [Compound 36] |  |  |  | 2.4 | minimal effective concentration (p24 synthesis): ≥ 0.01 µM; toxicity (CEM cells): no toxicity
CC(C)[C@H](NC(=O)N(C)Cc1ccccn1)C(=O)N[C@@H](Cc1ccccc1)[C@H](O)[C@H](O)[C@H](Cc1ccccc1)NC(=O)[C@@H](NC(=O)N(C)Cc1ccccn1)C(C)C [Compound A77003] |  |  |  |  | EC50 (viral activity; comparison compound in clinical trials, no unit printed (Ho et al.)): 200 nM
CC(C)c1nc(CN(C)C(=O)N[C@H](C(=O)N[C@@H](Cc2ccccc2)C[C@H](O)[C@H](Cc2ccccc2)NC(=O)OCc2cncs2)C(C)C)cs1 [ABT538] |  |  |  |  | EC50 (viral activity; comparison compounds in clinical trials): 36 nM
O=C(Nc1ccccc1C(=O)N[C@@H](Cc1ccccc1)[C@H](O)[C@H](O)[C@H](Cc1ccccc1)NC(=O)c1ccccc1NC(=O)OCc1ccccc1)OCc1ccccc1 [Compound 27] | good fluorescence | 2.4 | 2.4 nM |  | relative potency vs compound 26 ([2]; more potent than compound 26): 20 times
